The values below come from BindingDB's records for PubMed 35175760 (Shandong University, 2022).

A short description of assay [1]: Inhibition of HIV-1 reverse transcriptase K103N mutant assessed as reduction in luciferase reporter activity by single-round assay.
Assay [2] in a line: Inhibition of wild type HIV-1 reverse transcriptase assessed as reduction in luciferase reporter activity by single-round assay.
Assay [3] is described as follows: Inhibition of HIV-1 reverse transcriptase Y188L mutant assessed as reduction in luciferase reporter activity by single-round assay.
Assay [4] can be described thus: Inhibition of HIV-1 reverse transcriptase E138K mutant assessed as reduction in luciferase reporter activity by single-round assay.
Assay [5] is described as follows: Inhibition of HIV-1 reverse transcriptase Y181C mutant assessed as reduction in luciferase reporter activity by single-round assay.

As to `Cc1cc(/C=C/C#N)cc(C)c1-n1cnc2cnc(Nc3ccc(C#N)cc3)nc21`, the EC50 in assay [1] was 0.4 nM; in assay [2], 0.2 nM; in assay [3], 9.6 nM; in assay [4], 0.7 nM; in assay [5], 1.5 nM.
With `Cc1cc(/C=C/C#N)cc(C)c1Nc1ccnc(Nc2ccc(C#N)cc2)n1` [Rilpivirine], the EC50 in assay [2] came out at 0.4 nM.
With `Cc1cc(/C=C/C#N)cc(C)c1Nc1ncc2ncn(-c3ccc(C#N)cc3)c2n1`, the EC50 in assay [1] stood at 6.5 nM; in assay [2], 4.5 nM; in assay [3], 91 nM; in assay [4], 25 nM; in assay [5], 26 nM.
